Data taken from the NIST ThermoML archive (doi:10.1016/j.fluid.2015.03.012).

Assay: mn = molality of the nth substance listed, in mol/kg
Settings: Survismeter

C[C@H](CCC(=O)[O-])[C@H]1CC[C@H]2[C@@H]3CC[C@@H]4C[C@H](O)CC[C@]4(C)[C@H]3C[C@H](O)[C@]12C.[Na+] [sodium deoxycholate] + O
surface tension liquid-gas [mN/m]
Settings	293.15 K	298.15 K	303.15 K	308.15 K	313.15 K	318.15 K
m1 = 0.001	58.04	55.92	54.2	54.06	54.23	54.09
m1 = 0.002	55.17	53.25	51.68	51.56	51.75	51.62
m1 = 0.003	53.42	51.34	49.87	49.77	50.21	50.1
m1 = 0.004	50.47	48.6	47.5	47.19	47.62	48.2
m1 = 0.005	48.29	46.35	46.18	45.89	46.32	46.44
m1 = 0.006	46.29	45.1	45.13	44.86	45.29	45.21
m1 = 0.007	45.25	44.7	44.53	44.27	44.69	44.42
m1 = 0.009	44.86	44.51	44.34	43.89	44.11	44.04
m1 = 0.011	44.66	44.32	44.16	44.09	44.31	44.24
m1 = 0.013	44.87	44.53	44.16	43.9	44.32	44.24
m1 = 0.015	45.08	44.73	44.17	44.1	44.14	44.06
m1 = 0.017	44.89	44.54	44.18	44.3	44.14	44.26

C[C@H](CCC(=O)[O-])[C@H]1CC[C@H]2[C@@H]3[C@H](O)C[C@@H]4C[C@H](O)CC[C@]4(C)[C@H]3C[C@H](O)[C@]12C.[Na+] [sodium cholate] + O
surface tension liquid-gas [mN/m]
Settings	293.15 K	298.15 K	303.15 K	308.15 K	313.15 K	318.15 K
m1 = 0.001	63.15	62.55	61.55	61.35	60	59.45
m1 = 0.002	61.61	61.03	60.07	59.88	58.96	58.1
m1 = 0.003	60.5	59.94	59.01	58.83	57.95	57.45
m1 = 0.004	59.43	58.89	58.33	57.82	56.98	56.5
m1 = 0.006	57.08	56.89	56.04	55.58	55.14	54.69
m1 = 0.008	55.21	55.03	54.52	54.09	53.41	52.99
m1 = 0.01	54.04	53.57	53.09	52.68	52.05	51.65
m1 = 0.014	51.04	50.87	50.43	50.32	50.26	49.42
m1 = 0.018	50.55	50.64	50.2	49.59	49.07	48.73
m1 = 0.022	50.83	50.4	50.22	49.61	49.09	48.75
m1 = 0.026	50.59	50.17	49.99	49.63	49.11	48.77
m1 = 0.03	50.62	50.2	50.26	49.9	49.37	48.56
